Data reported in article PMC7060200, “Selective Binding of HSC70 and its Co-Chaperones to Structural Hotspots on CFTR” (Scientific Reports, 2020).
Ends that are not written are not given here. Peptide text beside a SMILES is read from it.

What was measured:
[1] = biological target: T1, HSC70 (Homo sapiens, UniProt P11142); assay: Competition ELISA: soluble peptide vs HSC70 binding to immobilized 1097-L; settings: for HSC70 binding site by competition screen (in words): 1 μM HSC70, 100 μM soluble peptide, Fig. 3c/5, cutoff twice SD of 733-L, n ≥ 4; for competition of HSC70 binding to immobilized 1097-L (in words): 1 μM HSC70, soluble peptide up to 100 μM
T1 construct: made in house
T1 sequence (P11142 whole entry): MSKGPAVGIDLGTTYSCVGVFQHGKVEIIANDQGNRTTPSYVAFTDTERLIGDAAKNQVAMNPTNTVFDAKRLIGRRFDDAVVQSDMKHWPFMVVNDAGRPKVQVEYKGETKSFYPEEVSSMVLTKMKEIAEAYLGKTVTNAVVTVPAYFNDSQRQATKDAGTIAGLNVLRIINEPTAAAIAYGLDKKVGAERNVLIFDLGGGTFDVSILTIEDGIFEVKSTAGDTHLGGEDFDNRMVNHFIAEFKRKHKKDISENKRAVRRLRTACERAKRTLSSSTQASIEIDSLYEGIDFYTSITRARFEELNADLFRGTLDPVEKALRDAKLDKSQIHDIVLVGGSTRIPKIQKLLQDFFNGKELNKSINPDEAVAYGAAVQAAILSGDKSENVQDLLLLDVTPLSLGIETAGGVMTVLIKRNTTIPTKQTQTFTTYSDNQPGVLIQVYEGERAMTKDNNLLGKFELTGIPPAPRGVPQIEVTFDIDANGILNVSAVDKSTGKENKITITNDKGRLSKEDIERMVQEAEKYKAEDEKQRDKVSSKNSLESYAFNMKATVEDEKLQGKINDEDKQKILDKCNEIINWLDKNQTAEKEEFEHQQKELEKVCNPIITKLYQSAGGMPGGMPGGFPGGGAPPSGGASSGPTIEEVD
Protocol: (§1) HSC70, DJA1 and DJA2 were purified as His-tagged proteins, as described. HSC70 was also amplified by PCR with an N-terminal FLAG tag, inserted into pPROEXHTa (Invitrogen) and purified as described. HSC70 was stored in 100 mM KOAc, 20 mM HEPES-KOH pH 7.5, 5 mM MgOAC2 (buffer G), DJA1 and DJA2 in 500 mM NaCl, 20 mM HEPES-KOH pH 7.5, 5 mM MgOAC2 (buffer H). Avi-tagged CFTR NBD1 was purified as described.
(§2) The CFTR peptide library was designed as 15-mers with 10-residue overlaps covering the cytosolic sequences as in Fig. 1a and Supplemental Table S1. Synthetic peptides (Mimotopes, PepSet purity) contained an N-terminal biotin followed by linker sequence GSGS and the 15-mer sequence. […] Peptides were reconstituted in DMSO or water.
(§3) For peptide binding, streptavidin-coated black 96-well plates (Nunc Maxisorp, ThermoFisher) were pre-rinsed with PBS containing 0.05% Tween-20 (PBST), and 5 µM biotinylated peptides in 100 µl PBS were bound overnnight at 4 °C with agitation. Plates were washed with PBST and blocked with PBST containing 0.5% bovine serum albumin (BSA) for 1 h. After removal of blocking solution, 100 µl reactions containing chaperones at indicated concentrations were bound for 45 min at room temperature with agitation. HSC70 reactions were in buffer G containing 1 mM ATP, DJA1 and DJA2 reactions were in buffer H. For competition assays, chaperones and peptides were mixed at indicated concentrations immediately before the reactions were added to the plates. For detections, the plates were washed in PBST and 5 μM His-Probe-HRP conjugate (ThermoFisher) in 100 μL PBST added for 15 min with agitation. After washing in PBST, plates were developed using Amplex Red (ThermoFisher) according to manufacturer’s instructions, in a fluorescence plate reader (Tecan M1000).
(§4) Affinities were determined separately from binding curves and from competition curves. Data from binding of chaperones to immobilized peptides (Fig. 2a,b and Supplemental Fig. S2a–c) were fit to the equation 1/(1 − i) = (C/i)/Kd^B − b, where i is the relative saturation, C is the chaperone concentration (1 μM), Kd^B is the apparent dissociation constant from the binding data. In the plot of 1/(1 − i) against (C/i), the slope is 1/Kd^B, and −b is the intercept. […] In the plot of bi + (C/Kd^B)/i over D, the slope is 1/Kd^C, and e is the intercept. The amount of chaperone bound in the absence of competitor was set as i = 1.
(§5) Established statistical methods[71]–[73] were used to analyze the data for chaperone binding to the peptide library. First, biological and statistical outliers were identified with the Tukey method in two rounds, for biological and then statistical outliers. […] Binding data were represented as multiples of the standard deviations from the normal means. Binding in the presence of competitor peptides were shown as a fraction of binding in the absence of competitor, or the fraction competed calculated as 1 – fraction bound. Values were compared using a two-tailed unpaired Student’s t-test assuming unequal variance.

[2] = biological target: T2, DJA2 (Homo sapiens, UniProt O60884); assay: Competition ELISA: soluble peptide vs DJA2 binding to immobilized 1097-L; settings: for DJA2 binding site by competition screen (in words): 1 μM DJA2, 100 μM soluble peptide, Fig. 3c/5, cutoff twice SD of 733-L, n ≥ 4; for competition of DJA2 binding to immobilized 1097-L (in words): 1 μM DJA2, soluble peptide up to 100 μM
T2 construct: made in house
T2 sequence (O60884 whole entry): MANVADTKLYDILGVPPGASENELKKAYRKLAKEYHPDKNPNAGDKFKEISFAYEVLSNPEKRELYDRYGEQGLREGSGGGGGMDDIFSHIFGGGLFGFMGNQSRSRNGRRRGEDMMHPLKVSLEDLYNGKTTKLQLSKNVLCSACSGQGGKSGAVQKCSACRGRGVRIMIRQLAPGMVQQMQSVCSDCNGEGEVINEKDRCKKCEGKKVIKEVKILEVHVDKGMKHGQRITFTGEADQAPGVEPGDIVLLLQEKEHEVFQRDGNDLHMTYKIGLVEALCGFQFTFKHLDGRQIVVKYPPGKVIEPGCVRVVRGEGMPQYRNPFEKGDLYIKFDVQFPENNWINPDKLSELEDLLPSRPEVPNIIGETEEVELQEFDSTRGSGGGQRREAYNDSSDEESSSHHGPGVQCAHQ
Protocol: as §1, §2, §3, §4, §5

[3] = biological target: T1, HSC70; assay: ELISA binding of HSC70 to immobilized CFTR NBD1 and competition by soluble peptides; settings: 1 μM HSC70, with ATP, soluble peptide, Fig. 4a; n = 5
Protocol: as §1
For NBD1 binding, 100 nM of strep-tagged NBD1 in 100 µl of 150 mM NaCl, 50 mM Na2HPO4 pH 7.5, 1 mM ATP, and 40 µM DTT (buffer N), was bound to streptavidin plates for 1 hour at 4 °C with agitation. Plates were washed with PBST and incubated in buffer N at 30 °C in a water bath for 5 min. Then, plates were blocked in PBST containing 0.5% BSA, followed by the addition of HSC70 binding reactions, and detection as above.

[4] = test system: HSC70 and DJA2; assay: Refolding of guanidine denatured luciferase by HSC70 and DJA2; format: biochemical; settings: 4 μM each HSC70 and DJA2, 100 nM luciferase, 100 μM peptide (25-fold excess), 60 min, % of control without peptide; n = 3
Protocol: Refolding of guanidine denatured luciferase with HSC70 and DJA2 was as described. […] To monitor refolding, luciferase activity was measured in a luminometer (Berthold Sirius) with the luciferase assay kit (Promega). For co-IPs, 20 μL reaction aliquots were stopped by dilution at 4 °C to 500 μL with buffer containing 0.1% Triton X-100, 0.2% BSA and 0.04 mg/mL apyrase (Sigma). Reactions were incubated with FLAG-M2 magnetic beads (Sigma) for 1 h at 4 °C with agitation, then beads were isolated and washed with buffer G containing 0.1% Triton X-100, and eluted with 40 μL of 1 μg/mL FLAG peptide in the same buffer. Samples were analyzed on Western blots detected with antibodies against luciferase (Sigma, L2164) and the FLAG-M2 tag (Sigma, F1804).

[5] = biological target: T3, DJA1 (Homo sapiens, UniProt P31689); assay: Competition ELISA: soluble peptide vs DJA1 binding to immobilized 1097-L; settings: for DJA1 binding site by competition screen (in words): 1 μM DJA1, 100 μM soluble peptide, Fig. 3c/5, cutoff twice SD of 733-L, n ≥ 4
T3 construct: made in house
T3 sequence (P31689 whole entry): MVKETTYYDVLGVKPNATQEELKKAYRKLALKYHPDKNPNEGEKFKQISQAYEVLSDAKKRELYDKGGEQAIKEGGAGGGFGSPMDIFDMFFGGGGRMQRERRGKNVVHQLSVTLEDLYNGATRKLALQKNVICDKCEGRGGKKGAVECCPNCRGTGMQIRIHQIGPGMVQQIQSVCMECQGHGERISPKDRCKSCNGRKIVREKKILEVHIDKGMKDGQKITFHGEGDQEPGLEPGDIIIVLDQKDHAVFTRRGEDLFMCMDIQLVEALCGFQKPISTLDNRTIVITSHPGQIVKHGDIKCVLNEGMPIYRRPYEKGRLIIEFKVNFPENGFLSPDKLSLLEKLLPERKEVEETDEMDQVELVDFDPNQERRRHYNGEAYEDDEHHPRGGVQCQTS
Protocol: as §1, §2, §3, §4, §5

| Compound | HSC70 binding site by competition screen (in words) [1] | competition of HSC70 binding to immobilized 1097-L (in words) [1] | Kd ([1]; read-out: Kd from competition curves, HSC70) | DJA2 binding site by competition screen (in words) [2] | competition of HSC70 binding to immobilized NBD1 (in words) [3] | effect on luciferase refolding (in words) [4] | DJA1 binding site by competition screen (in words) [5] | competition of DJA1 binding to immobilized 1097-L (in words) ([5]; 1 μM DJA1, soluble peptide up to 100 μM) | competition of DJA2 binding to immobilized 1097-L (in words) [2] |
| --- | --- | --- | --- | --- | --- | --- | --- | --- | --- |
| QKVFIFSGTF [Peptide 1295-S] | HSC70-DJA2 sites | competed | 1260 nM | HSC70-DJA2 sites | effective competitors | partial but still significant |  |  |  |
| CC[C@H](C)[C@H](NC(=O)[C@@H](NC(=O)[C@@H](NC(=O)[C@H](CS)NC(=O)[C@@H](N)CC(=O)O)[C@@H](C)O)C(C)C)C(=O)N[C@@H](CC(C)C)C(=O)N[C@@H](CS)C(=O)N[C@@H](CCC(=O)O)C(=O)N[C@@H](Cc1c[nH]cn1)C(=O)O [Peptide 1398-S] (H-DCTVILCEH-OH; N-terminus and C-terminus assumed) | bound by HSC70, DJA2 and DJA1 | competed |  | bound by HSC70, DJA2 and DJA1 | effective competitors | inhibited refolding | bound by HSC70, DJA2 and DJA1 | competed | competed |
| TSLLMVIMG [Peptide 469-S] | HSC70-DJA2 sites | competed HSC70 well |  | HSC70-DJA2 sites | competed the majority of HSC70 | inhibited refolding |  |  | competed |
| DKILILHEG [Peptide 618-S] | bound by HSC70, DJA2 and DJA1 | competed HSC70 well |  | bound by HSC70, DJA2 and DJA1 | competed the majority of HSC70 | partial but still significant | bound by HSC70, DJA2 and DJA1 |  |  |
